From article PMC4954055, “A Self‐Assembled Respiratory Chain that Catalyzes NADH Oxidation by Ubiquinone‐10 Cycling between Complex I and the Alternative Oxidase” (Angewandte Chemie (International Ed. in English), 2015)

Target: T1, alternative oxidase (AOX) (Trypanosoma brucei, UniProt Q26710)
T1 construct: single-subunit quinol oxidase reconstituted into proteoliposomes
Assay: coupled NADH:O2 oxidoreduction in CI/Q10/AOX proteoliposomes
Format: biochemical
Conditions: complex I rate determining; Q10H2 formed in the membrane by complex I

T1 sequence (Q26710 25-329): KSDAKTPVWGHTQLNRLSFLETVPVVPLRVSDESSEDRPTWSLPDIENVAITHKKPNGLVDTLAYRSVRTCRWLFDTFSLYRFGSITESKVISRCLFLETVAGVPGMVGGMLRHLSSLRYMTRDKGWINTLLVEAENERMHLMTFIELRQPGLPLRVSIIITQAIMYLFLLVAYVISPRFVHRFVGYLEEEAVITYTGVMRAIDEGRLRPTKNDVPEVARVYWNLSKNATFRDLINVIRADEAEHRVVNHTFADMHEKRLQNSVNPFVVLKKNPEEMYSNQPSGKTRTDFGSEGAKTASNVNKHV

COc1c(O)c(C)c(C/C=C(\C)CC/C=C(\C)CC/C=C(\C)CC/C=C(\C)CC/C=C(\C)CC/C=C(\C)CC/C=C(\C)CC/C=C(\C)CC/C=C(\C)CCC=C(C)C)c(O)c1OC [Q10H2]
coupled NADH:O2 oxidoreduction in CI/Q10/AOX proteoliposomes: AOX reoxidizes the Q10H2 and reduces O2 to H2O
